Results as given in ChEMBL document CHEMBL1124276, “Evaluation of the importance of hydrophobic interactions in drug binding to dihydrofolate reductase” (J Med Chem, 1988).

Key:
Dihydrofolate reductase [1] = target: T1, Dihydrofolate reductase (Escherichia coli, UniProt P0ABQ4); assay: Thermodynamic Dissociation Constant for compound-Tyr31-dihydrofolate reductase (DHFR) complex at pH 8.5
Dihydrofolate reductase [2] = target: T1, Dihydrofolate reductase; assay: Thermodynamic Dissociation Constant for compound-Val31-dihydrofolate reductase (DHFR) complex at pH 7
Dihydrofolate reductase [3] = target: T1, Dihydrofolate reductase; assay: Thermodynamic Dissociation Constant for compound-Val31-dihydrofolate reductase (DHFR) complex at pH 8.5
Dihydrofolate reductase [4] = target: T1, Dihydrofolate reductase; assay: Thermodynamic Dissociation Constant for compound-Phe31-dihydrofolate reductase (DHFR) complex at pH 7
Dihydrofolate reductase [5] = target: T1, Dihydrofolate reductase; assay: Thermodynamic Dissociation Constant for compound-Phe31-dihydrofolate reductase (DHFR) complex at pH 8.5
Dihydrofolate reductase [6] = target: T1, Dihydrofolate reductase; assay: Thermodynamic Dissociation Constant for compound-Tyr31-dihydrofolate reductase (DHFR) complex at pH 7
Dihydrofolate reductase [7] = target: T2, Dihydrofolate reductase (Escherichia coli, UniProt P0ABQ4); assay: Inhibition constant for Phe31-dihydrofolate reductase (DHFR)-NADPH-Compound complex
T2 sequence (P0ABQ4 whole entry): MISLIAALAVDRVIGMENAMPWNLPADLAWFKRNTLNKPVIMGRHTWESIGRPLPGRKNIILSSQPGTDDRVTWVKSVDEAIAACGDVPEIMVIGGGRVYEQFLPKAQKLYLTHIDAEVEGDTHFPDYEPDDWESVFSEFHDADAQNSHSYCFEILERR

Dihydrofolate reductase [8] = target: T1, Dihydrofolate reductase; assay: Inhibition constant for Tyr31-dihydrofolate reductase (DHFR)-NADPH-Compound complex
Dihydrofolate reductase [9] = target: T1, Dihydrofolate reductase; assay: Inhibition constant for Val31-dihydrofolate reductase (DHFR)-NADPH-Compound complex
Dihydrofolate reductase [10] = target: T1, Dihydrofolate reductase; assay: Thermodynamic Dissociation Constant for compound-Tyr31-dihydrofolate reductase (DHFR) complex at pH 6
Dihydrofolate reductase [11] = target: T1, Dihydrofolate reductase; assay: Thermodynamic Dissociation Constant for compound-Phe31-dihydrofolate reductase (DHFR) complex at pH 6
[12] = target: T3, Dihydrofolate reductase (Escherichia coli) (UniProt P0ABQ4)
T3 sequence (whole entry): T2 sequence (P0ABQ4 whole entry)
Description: Dissociation constant at(Koff) Tyr-31 of dihydrofolate reductase (DHFR)

[13] = target: T3, Dihydrofolate reductase (Escherichia coli); remark: listed apart in the source
Description: Dissociation constant(Koff) at Phe-31 of dihydrofolate reductase (DHFR)

[14] = target: T3, Dihydrofolate reductase (Escherichia coli); remark: listed apart in the source
Description: Association constant(Kon) at Tyr-31 of dihydrofolate reductase (DHFR)

[15] = target: T3, Dihydrofolate reductase (Escherichia coli); remark: listed apart in the source
Description: Constant at Tyr-31(Kr) of dihydrofolate reductase (DHFR)

[16] = target: T3, Dihydrofolate reductase (Escherichia coli); remark: listed apart in the source
Description: Constant, Kr at Phe-31 of dihydrofolate reductase (DHFR)

Compound | Kd (Dihydrofolate reductase [1]) [nM] | Kd (Dihydrofolate reductase [2]) [nM] | Kd (Dihydrofolate reductase [3]) [nM] | Kd (Dihydrofolate reductase [4]) [nM] | Kd (Dihydrofolate reductase [5]) [nM] | Kd (Dihydrofolate reductase [6]) [nM] | Ki (Dihydrofolate reductase [7]) [nM] | Ki (Dihydrofolate reductase [8]) [nM] | Ki (Dihydrofolate reductase [9]) [nM] | Kd (Dihydrofolate reductase [10]) [nM] | Kd (Dihydrofolate reductase [11]) [nM] | k off [12] [s⁻¹] | k off [13] [s⁻¹] | k on [14] [M⁻¹ s⁻¹] | Kr [15] [s⁻¹] | Kr [16] [s⁻¹]
NC(=O)c1ccc[n+]([C@H]2O[C@@H](COP(=O)([O-])OP(=O)(O)OC[C@H]3O[C@@H](n4cnc5c(N)ncnc54)[C@H](OP(=O)(O)O)[C@@H]3O)[C@H](O)[C@@H]2O)c1 [NICOTINAMIDE ADENINE DINUCLEOTIDE PHOSPHATE] | 400 | 220 | 300 | 380 | 490 | 340 |  |  |  |  |  |  |  |  |  | 
Nc1nc2ncc(CNc3ccc(C(=O)N[C@@H](CCC(=O)O)C(=O)O)cc3)nc2c(=O)[nH]1 [FOLIC ACID] |  | 4800 |  | 810 |  | 4400 |  |  |  |  |  |  |  |  |  | 
Cc1nc2nc(N)nc(N)c2nc1C |  |  |  |  |  |  | 44 | 57 | 9100 | 3900 | 1600 | 25 | 35 | 6.8e+06 | 25 | 24
